pIC50: −log10 of the molar value. Where two headings read alike, the source gives them in different places.
Assays:
[1] = test system: synthesis of LTB4 in human whole blood; test: human whole blood LTB4 production inhibition assay; format: cell-based; conditions: heparinized human whole blood, calcimycin 20 μM, read-out: hWB LTB4 IC50
Summary of the method: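 Whole-blood cellular format, heparinized human donors: 15 min compound pretreatment, then 30 min calcimycin stimulation (20 μM final), both at 37° C. Low-speed centrifugation yields plasma, in which LTB4 is read by homogeneous time-resolved fluorescence immunoassay.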

[2] = biological target: T1, recombinant human FLAP protein (Homo sapiens, UniProt P20292); test: FLAP binding assay (Scintillation Proximity Assay, displacement of [125I]L-691,831); conditions: recombinant human FLAP membranes, [125I]L-691,831 probe; read-out: FLAP SPA IC50
T1 construct: made in house; host or cells: Sf9 insect cells (100,000 x g membrane fraction)
T1 sequence (P20292 1-161): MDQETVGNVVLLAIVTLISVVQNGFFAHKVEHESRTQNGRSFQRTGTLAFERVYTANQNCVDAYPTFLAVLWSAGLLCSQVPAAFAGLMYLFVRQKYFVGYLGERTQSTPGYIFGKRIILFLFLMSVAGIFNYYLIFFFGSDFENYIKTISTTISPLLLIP
Summary of the method: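 Membranes came from Sf9 insect cells expressing recombinant human FLAP, collected as the 100,000×g pellet in Tris pH 7.5/MgCl2/EDTA buffer. 5 μg membrane protein was coupled to WGA SPA beads for 1 h.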

| Compound | pIC50 ([1]; Homo sapiens) | pIC50 [2] | pIC50 [1] |
| --- | --- | --- | --- |
| Nc1ncc(-c2ccc(C3(c4noc(-c5ccc(NCCN6CCOCC6)nn5)n4)CCC3)cc2)cn1 [Example 115, [6-(3-{1-[4-(2-Amino-pyrimidin-5-yl)-phenyl]-cyclobutyl}-1,2,4-oxadiazol-5-yl)-pyridazin-3-yl]-(2-morpholin-4-yl-ethyl)-amine] | 6.85 | 8.48 | – |
| Nc1ncc(-c2ccc(C3(c4noc(-c5ccc(N6CCNCC6)nc5)n4)CCC3)cc2)cn1 [Example 116, 5-(4-{1-[5-(6-piperazin-1-yl-pyridin-3-yl)-1,2,4-oxadiazol-3-yl]-cyclobutyl}-phenyl)-pyrimidin-2-ylamine] | 6.82 | 8.74 | – |
| Cn1cc(-c2nc(C3(c4ccc(-c5cnc(N)nc5)cc4F)CCC3)no2)cn1 [Example 117, 5-(3-Fluoro-4-{1-[5-(1-methyl-1H-pyrazol-4-yl)-1,2,4-oxadiazol-3-yl]-cyclobutyl}-phenyl)-pyrimidin-2-ylamine] | 6.85 | 8.59 | – |
| CNC(=O)Cn1cccc(-c2nc(C3(c4ccc(-c5cnc(N)nc5)cc4)CCC3)no2)c1=O [Example 118, 2-[3-(3-{1-[4-(2-amino-pyrimidin-5-yl)-phenyl]-cyclobutyl}-1,2,4-oxadiazol-5-yl)-2-oxo-2H-pyridin-1-yl]-N-methyl-acetamide] | 5.77 | 7.68 | – |
| CN(C)C(=O)Cn1cccc(-c2nc(C3(c4ccc(-c5cnc(N)nc5)cc4)CCC3)no2)c1=O [Example 119, 2-[3-(3-{1-[4-(2-Amino-pyrimidin-5-yl)-phenyl]-cyclobutyl}-1,2,4-oxadiazol-5-yl)-2-oxo-2H-pyridin-1-yl]-N,N-dimethyl-acetamide] | 6.10 | 7.40 | – |
| CC(C)(O)CNc1cnc(-c2nc(C3(c4ccc(-c5cnc(N)nc5)cc4)CCC3)no2)cn1 [Example 120, 1-[5-(3-{1-[4-(2-Amino-pyrimidin-5-yl)-phenyl]-cyclobutyl}-1,2,4-oxadiazol-5-yl)-pyrazin-2-ylamino]-2-methyl-propan-2-ol] | 6.13 | 8.04 | – |
| CC(C)(CO)Nc1cnc(-c2nc(C3(c4ccc(-c5cnc(N)nc5)cc4)CCC3)no2)cn1 [Example 121, 2-[5-(3-{1-[4-(2-Amino-pyrimidin-5-yl)-phenyl]-cyclobutyl}-1,2,4-oxadiazol-5-yl)-pyrazin-2-ylamino]-2-methyl-propan-1-ol] | 6.35 | 8.31 | – |
| Cn1cc(-c2nc(C3(c4ccc(-c5cnc(N)nc5)cc4)CC(F)(F)C3)no2)cn1 [Example 122, 5-(4-{3,3-Difluoro-1-[5-(1-methyl-1H-pyrazol-4-yl)-1,2,4-oxadiazol-3-yl]-cyclobutyl}-phenyl)-pyrimidin-2-ylamine] | 6.44 | 7.85 | – |
| Cn1cc(-c2nc(C3(c4ccc(-c5cnc(N)nc5)cc4)CC(C)(C)C3)no2)cn1 [Example 123, 5-(4-{3,3-Dimethyl-1-[5-(1-methyl-1H-pyrazol-4-yl)-1,2,4-oxadiazol-3-yl]-cyclobutyl}-phenyl)-pyrimidin-2-ylamine] | 5.82 | 7.46 | – |
| Nc1ncc(-c2ccc(C3(c4noc(-c5cnc(N6CCNCC6)cn5)n4)CCC3)cc2)cn1 [Example 124, 5-(4-{1-[5-(3,4,5,6-Tetrahydro-1H-1,2′-bipyrazinyl-5′-yl)-1,2,4-oxadiazol-3-yl]-cyclobutyl}-phenyl)-pyrimidin-2-ylamine] | – | 8.46 | < 5.30 |
| COC(=O)[C@H]1CN(c2cnc(-c3nc(C4(c5ccc(-c6cnc(N)nc6)cc5)CCC4)no3)cn2)CCN1 [Example 125, (R)-5′-(3-{1-[4-(2-Amino-pyrimidin-5-yl)-phenyl]-cyclobutyl}-1,2,4-oxadiazol-5-yl)-3,4,5,6-tetrahydro-2H-1,2′-bipyrazinyl-3-carboxylic acid methyl ester] | – | 8.30 | < 5.30 |
| COC(=O)[C@@H]1CN(c2cnc(-c3nc(C4(c5ccc(-c6cnc(N)nc6)cc5)CCC4)no3)cn2)CCN1 [Example 126, (S)-5′-(3-{1-[4-(2-Amino-pyrimidin-5-yl)-phenyl]-cyclobutyl}-1,2,4-oxadiazol-5-yl)-3,4,5,6-tetrahydro-2H-1,2′-bipyrazinyl-3-carboxylic acid methyl ester] | – | 8.24 | < 5.30 |
| Nc1ncc(-c2ccc(C3(c4noc(-c5cnn(CC(=O)N6CCCCC6)c5)n4)CCC3)cc2)cn1 [Example 127, 2-[4-(3-{1-[4-(2-Amino-pyrimidin-5-yl)-phenyl]-cyclobutyl}-1,2,4-oxadiazol-5-yl)-pyrazol-1-yl]-1-piperidin-1-yl-ethanone] | 6.92 | 8.49 | – |
| CN(C)C(=O)C(C)(C)n1cc(-c2nc(C3(c4ccc(-c5cnc(N)nc5)cc4)CCC3)no2)cn1 [Example 128, 2-[4-(3-{1-[4-(2-amino-pyrimidin-5-yl)-phenyl]-cyclobutyl}-1,2,4-oxadiazol-5-yl)-pyrazol-1-yl]-N,N-dimethyl-isobutyramide] | 6.74 | 8.17 | – |
| CN(C)C(=O)C(C)(C)Cn1cc(-c2nc(C3(c4ccc(-c5cnc(N)nc5)cc4)CCC3)no2)cn1 [Example 129, 3-[4-(3-{1-[4-(2-Amino-pyrimidin-5-yl)-phenyl]-cyclobutyl}-1,2,4-oxadiazol-5-yl)-pyrazol-1-yl]-2,2,N,N-tetramethyl-propionamide] | 6.85 | 8.41 | – |
| CCNC(=O)Cn1cc(-c2nc(C3(c4ccc(-c5cnc(N)nc5)cc4)CCC3)no2)cn1 [Example 130, 2-[4-(3-{1-[4-(2-Amino-pyrimidin-5-yl)-phenyl]-cyclobutyl}-1,2,4-oxadiazol-5-yl)-pyrazol-1-yl]-N-ethyl-acetamide] | 7.12 | 8.82 | – |
| CCN(CC)C(=O)Cn1cc(-c2nc(C3(c4ccc(-c5cnc(N)nc5)cc4)CCC3)no2)cn1 [Example 131, 2-[4-(3-{1-[4-(2-Amino-pyrimidin-5-yl)-phenyl]-cyclobutyl]-1,2,4-oxadiazol-5-yl)-pyrazol-1-yl]-N,N-diethyl-acetamide] | 7.06 | 8.41 | – |
| Nc1ncc(-c2ccc(C3(c4noc(-c5cnn(CC(=O)NC6CC6)c5)n4)CCC3)cc2)cn1 [Example 132, 2-[4-(3-{1-[4-(2-Amino-pyrimidin-5-yl)-phenyl]-cyclobutyl}-1,2,4-oxadiazol-5-yl)-pyrazol-1-yl]-N-cyclopropyl-acetamide] | 7.16 | 8.55 | – |
| CC(C(=O)N(C)C)n1cc(-c2nc(C3(c4ccc(-c5cnc(N)nc5)cc4)CCC3)no2)cn1 (stereo not drawn) [Example 133, 2-[4-(3-{1-[4-(2-Amino-pyrimidin-5-yl)-phenyl]-cyclobutyl}-1,2,4-oxadiazol-5-yl)-pyrazol-1-yl]-N,N-dimethyl-propionamide] | 7.14 | 8.37 | – |
| Nc1ncc(-c2ccc(C3(c4noc(-c5cnn(CC(=O)N6CCOCC6)c5)n4)CCC3)cc2)cn1 [Example 134, 2-[4-(3-{1-[4-(2-Amino-pyrimidin-5-yl)-phenyl]-cyclobutyl}-1,2,4-oxadiazol-5-yl)-pyrazol-1-yl]-1-morpholin-4-yl-ethanone] | 6.92 | 8.24 | – |
| CN(C)S(=O)(=O)n1cc(-c2nc(C3(c4ccc(-c5cnc(N)nc5)cc4)CCC3)no2)cn1 [Example 135] | 6.72 | 7.98 | – |
| CN(C)C(=O)n1cc(-c2nc(C3(c4ccc(-c5cnc(N)nc5)cc4)CCC3)no2)cn1 [Example 136, 4-(3-{1-[4-(2-Amino-pyrimidin-5-yl)-phenyl]-cyclobutyl}-1,2,4-oxadiazol-5-yl)-pyrazole-1-carboxylic acid dimethylamide] | 7.18 | 8.82 | – |
| Nc1ncc(-c2ccc(C3(c4noc(-c5cnn(CC(=O)N6CCCC6)c5)n4)CCC3)cc2)cn1 [Example 137, 2-[4-(3-{1-[4-(2-Amino-pyrimidin-5-yl)-phenyl]-cyclobutyl}-1,2,4-oxadiazol-5-yl)-pyrazol-1-yl]-1-pyrrolidin-1-yl-ethanone] | 6.77 | 8.11 | – |
| CCN(C)C(=O)Cn1cc(-c2nc(C3(c4ccc(-c5cnc(N)nc5)cc4)CCC3)no2)cn1 [Example 138, 2-[4-(3-{1-[4-(2-Amino-pyrimidin-5-yl)-phenyl]-cyclobutyl}-1,2,4-oxadiazol-5-yl)-pyrazol-1-yl]-N-ethyl-N-methyl-acetamide] | 7.42 | 8.55 | – |
| CC(C)N(C)C(=O)Cn1cc(-c2nc(C3(c4ccc(-c5cnc(N)nc5)cc4)CCC3)no2)cn1 [Example 139, 2-[4-(3-{1-[4-(2-Amino-pyrimidin-5-yl)-phenyl]-cyclobutyl}-1,2,4-oxadiazol-5-yl)-pyrazol-1-yl]-N-isopropyl-N-methyl-acetamide] | 7.02 | 8.59 | – |
| Nc1ncc(-c2ccc(C3(c4noc(-c5cnn(CC(=O)NCC(F)(F)F)c5)n4)CCC3)cc2)cn1 [Example 140, 2-[4-(3-{1-[4-(2-Amino-pyrimidin-5-yl)-phenyl]-cyclobutyl}-1,2,4-oxadiazol-5-yl)-pyrazol-yl]-N-(2,2,2-trifluoro-ethyl)-acetamide] | 7.17 | 8.36 | – |
| CN(C(=O)Cn1cc(-c2nc(C3(c4ccc(-c5cnc(N)nc5)cc4)CCC3)no2)cn1)C1CC1 [Example 141, 2-[4-(3-{1-[4-(2-Amino-pyrimidin-5-yl)-phenyl]-cyclobutyl]-1,2,4-oxadiazol-5-yl)-pyrazol-1-yl]-N-cyclopropyl-N-methyl-acetamide] | 7.37 | 9.05 | – |

Source: patent US8580829B2 (Boehringer Ingelheim International GmbH, priority 2010, dated 2013)
